In publication PMC8286840, “Identifying SARS-CoV-2 antiviral compounds by screening for small molecule inhibitors of Nsp3 papain-like protease” (Biochemical Journal, 2021):
Where a name gives a salt, the structure may show the parent alone. Read-outs that look alike come from different tables or passages of the source. Where a SMILES comes first, the peptide text is derived from it.

Assays:
[1] = target: T1, SARS-CoV-2 PLpro (nsp3 1564–1878) (Severe acute respiratory syndrome coronavirus 2, UniProt P0DTD1); test: biochemical; parameters: FRET-quenched peptide (Pro3) cleavage by PLpro, 10 min pre-incubation, slope over 20 min, normalised to no-compound control; conditions: low concentration screen, read-out: % of control remaining
[2] = target: T1, SARS-CoV-2 PLpro (nsp3 1564–1878); test: biochemical; parameters: FRET-quenched peptide (Pro3) cleavage by PLpro, 10 min pre-incubation, slope over 20 min, normalised to no-compound control; conditions: high concentration screen, read-out: % of control remaining

**Q.** Which results are given for `Nc1cccc2c1CN(C1CCC(=O)NC1=O)C2=O` (stereo not drawn) [Lenalidomide (Revlimid)]?
**A.** remaining activity at 1.25 µM ([1]; Well no.=4838): 97.7%; remaining activity at 3.75 µM ([2]; Well no.=4838): 97.8%

**Q.** What does the source list for `Cc1cc(/C=N/NC(=O)c2cc(Br)c(O)c(Br)c2)c(C)n1-c1cccc([N+](=O)[O-])c1` [Kinesore]?
**A.** remaining activity at 1.25 µM ([1]; Well no.=7784): 93.8%; remaining activity at 3.75 µM ([2]; Well no.=7784): 91.7%

**Q.** For `CNc1ccc2oc(C[C@H]3O[C@@]4(CC[C@H]3C)O[C@H]([C@H](C)C(=O)c3ccc[nH]3)[C@H](C)C[C@H]4C)nc2c1C(=O)O` [Calcimycin], which remaining activity at 1.25 µM ([1]; Well no.=376) is on record?
**A.** 98.7%

**Q.** What about the remaining activity at 3.75 µM ([2]; Well no.=376) of the same molecule?
**A.** 96.8%

**Q.** What does the source list for `COc1cccc(OC)c1C(=O)N[C@@H]1C(=O)N2[C@@H]1SC(C)(C)[C@@H]2C(=O)O` [Methicillin (sodium salt)]?
**A.** remaining activity at 1.25 µM ([1]; Well no.=7448): 100%; remaining activity at 3.75 µM ([2]; Well no.=7448): 99.6%

**Q.** Which results are given for `O=C1CC(c2c[nH]c3ccc(F)cc23)C(=O)N1` (stereo not drawn) [PF-06840003]?
**A.** remaining activity at 1.25 µM ([1]; Well no.=8215): 104%; remaining activity at 3.75 µM ([2]; Well no.=8215): 101%

**Q.** Which remaining activity at 1.25 µM ([1]; Well no.=178) does the source give for `Cc1nnc(SCC2=C(C(=O)O)N3C(=O)[C@@H](NC(=O)Cn4cnnn4)[C@H]3SC2)s1` [Cefazolin sodium] here?
**A.** 101%

**Q.** What about the remaining activity at 3.75 µM ([2]; Well no.=178) of the same molecule?
**A.** 99.4%

**Q.** How did the remaining activity at 1.25 µM ([1]; Well no.=2651) turn out when `O=C1Nc2ccc(Br)cc2/C1=C/c1cc2c([nH]1)CCCC2` [VEGF Receptor 2 Kinase Inhibitor II] was run?
**A.** 86%

**Q.** And the remaining activity at 3.75 µM ([2]; Well no.=2651)?
**A.** 87.8%

**Q.** For `CC[C@H](C)[C@H](NC(=O)[C@@H]1CCCN1C(=O)[C@H](Cc1cnc[nH]1)NC(=O)[C@@H](NC(=O)[C@H](Cc1ccc(O)cc1)NC(=O)[C@@H](NC(=O)[C@H](CCCN=C(N)N)NC(=O)CNC)C(C)C)[C@@H](C)CC)C(=O)O` [[Sar1, Ile8]-Angiotensin II (TFA)], which remaining activity at 1.25 µM ([1]; Well no.=7588) is on record?
**A.** 96%

**Q.** What about the remaining activity at 3.75 µM ([2]; Well no.=7588) of the same molecule?
**A.** 92%

**Q.** Which results are given for `CCCCCCCCCCCCC/C=C/[C@@H](O)[C@H](CO)NC(=O)CCCCC` [C6 Ceramide]?
**A.** remaining activity at 1.25 µM ([1]; Well no.=3123): 100%; remaining activity at 3.75 µM ([2]; Well no.=3123): 101%

**Q.** How did the remaining activity at 1.25 µM ([1]; Well no.=2596) turn out when `CSc1nc(-c2ccnc(NC(C)c3ccccc3)c2)c(-c2ccc(F)cc2)[nH]1` (stereo not drawn) [p38 MAP Kinase Inhibitor III] was run?
**A.** 94.7%

**Q.** What about the remaining activity at 3.75 µM ([2]; Well no.=2596) of the same molecule?
**A.** 94.5%

**Q.** Which remaining activity at 1.25 µM ([1]; Well no.=1364) does the source give for `CCN1CCC[C@H]1CNC(=O)c1cc(S(N)(=O)=O)ccc1OC` [(-)-Sulpiride] here?
**A.** 101%

**Q.** What about the remaining activity at 3.75 µM ([2]; Well no.=1364) of the same molecule?
**A.** 99.2%

**Q.** `COc1ccc(C[C@H](N)C(=O)N[C@H]2[C@@H](O)[C@H](n3cnc4c(N(C)C)ncnc43)O[C@@H]2CO)cc1` [Puromycin] was tested. Which remaining activity at 1.25 µM ([1]; Well no.=1674) did it give?
**A.** 98.5%

**Q.** What about the remaining activity at 1.25 µM ([1]; Well no.=3350) of the same molecule?
**A.** 93.8%

**Q.** And the remaining activity at 3.75 µM ([2]; Well no.=1674)?
**A.** 97.6%

**Q.** What about the remaining activity at 3.75 µM ([2]; Well no.=3350) of the same molecule?
**A.** 90.4%

**Q.** With `CCN(CC)CCCC(C)Nc1nc(C)cc(Nc2ccc3nc(C)cc(N)c3c2)n1` (stereo not drawn) [NSC 23766] as the molecule, how does the remaining activity at 1.25 µM ([1]; Well no.=4798) read?
**A.** 103%

**Q.** What about the remaining activity at 3.75 µM ([2]; Well no.=4798) of the same molecule?
**A.** 101%

**Q.** Which results are given for `O=C(O)[C@H]1Cc2ccccc2CN1` [(R)-1,2,3,4-Tetrahydro-3-isoquinolinecarboxylic acid]?
**A.** remaining activity at 1.25 µM ([1]; Well no.=8608): 102%; remaining activity at 3.75 µM ([2]; Well no.=8608): 101%

**Q.** Which remaining activity at 1.25 µM ([1]; Well no.=6534) does the source give for `CN1C(=O)[C@@H](NC(=O)c2cc(Cc3ccccc3)on2)COc2ccccc21` [GSK'481] here?
**A.** 104%

**Q.** What about the remaining activity at 3.75 µM ([2]; Well no.=6534) of the same molecule?
**A.** 98.7%

**Q.** Which remaining activity at 1.25 µM ([1]; Well no.=3269) does the source give for `CC[C@@H](C)[C@@H](O)[C@H](C)C(=O)[C@H](C)/C=C(\C)C[C@H](C)[C@@H]1OC(=O)[C@H]1CC` [Ebelactone B] here?
**A.** 103%

**Q.** What about the remaining activity at 3.75 µM ([2]; Well no.=3269) of the same molecule?
**A.** 104%

**Q.** What does the source list for `OC[C@H]1O[C@@H](n2cnc3c(NCCc4ccccc4)ncnc32)[C@H](O)[C@@H]1O` [N6-(2-Phenylethyl)adenosine]?
**A.** remaining activity at 1.25 µM ([1]; Well no.=8431): 96.1%; remaining activity at 3.75 µM ([2]; Well no.=8431): 96.2%

**Q.** How did the remaining activity at 1.25 µM ([1]; Well no.=653) turn out when `CCC1(C)CC(=O)NC1=O` (stereo not drawn) [Ethosuximide] was run?
**A.** 96.4%

**Q.** What about the remaining activity at 3.75 µM ([2]; Well no.=653) of the same molecule?
**A.** 97.7%

**Q.** Which remaining activity at 1.25 µM ([1]; Well no.=8217) does the source give for `CC(=O)N[C@@H]1C[C@H](NC(C)(C)C)CC[C@@H]1N1CC[C@H](Nc2ncnc3cc(C(C)(C)C)nn23)C1=O` [BMS-813160] here?
**A.** 103%

**Q.** And the remaining activity at 3.75 µM ([2]; Well no.=8217)?
**A.** 100%

**Q.** Which remaining activity at 1.25 µM ([1]; Well no.=1168) does the source give for `NCCCCNCCCN` [Spermidine trihydrochloride] here?
**A.** 102%

**Q.** What about the remaining activity at 3.75 µM ([2]; Well no.=1168) of the same molecule?
**A.** 104%

**Q.** For `NC(N)=NCCC[C@H](N)C(=O)NCC(=O)N[C@@H](CCC(=O)O)C(=O)N[C@@H](CO)C(=O)O` [Arg-Gly-Glu-Ser(TFA)] (H-RGES-OH), which remaining activity at 1.25 µM ([1]; Well no.=7924) is on record?
**A.** 96.4%

**Q.** What about the remaining activity at 3.75 µM ([2]; Well no.=7924) of the same molecule?
**A.** 97.3%

**Q.** How did the remaining activity at 1.25 µM ([1]; Well no.=1209) turn out when `CNCCCC1c2ccccc2C=Cc2ccccc21` [Protriptyline hydrochloride] was run?
**A.** 108%

**Q.** What about the remaining activity at 3.75 µM ([2]; Well no.=1209) of the same molecule?
**A.** 104%

**Q.** Which results are given for `O=C1NC(c2cccc([N+](=O)[O-])c2)=CCN1c1ccccc1O` [Icilin]?
**A.** remaining activity at 1.25 µM ([1]; Well no.=5682): 83.3%; remaining activity at 3.75 µM ([2]; Well no.=5682): 83.5%

**Q.** Which remaining activity at 1.25 µM ([1]; Well no.=1028) does the source give for `O=C1c2c(O)ccc(O)c2C(=O)c2c(NCCNCCO)ccc(NCCNCCO)c21` [Mitoxantrone] here?
**A.** 100%

**Q.** And the remaining activity at 1.25 µM ([1]; Well no.=1997)?
**A.** 104%

**Q.** And the remaining activity at 3.75 µM ([2]; Well no.=1028)?
**A.** 101%

**Q.** What about the remaining activity at 3.75 µM ([2]; Well no.=1997) of the same molecule?
**A.** 103%

**Q.** With `O=C(Nc1ccc(Cl)cc1)Nc1cccc(-c2cccc(N3CCCC3)n2)c1` [PSNCBAM-1] as the molecule, how does the remaining activity at 1.25 µM ([1]; Well no.=5820) read?
**A.** 105%

**Q.** And the remaining activity at 3.75 µM ([2]; Well no.=5820)?
**A.** 97%

**Q.** What does the source list for `NC(=O)NC1NC(=O)NC1=O` (stereo not drawn) [Allantoin]?
**A.** remaining activity at 1.25 µM ([1]; Well no.=6631): 104%; remaining activity at 1.25 µM ([1]; Well no.=8145): 106%; remaining activity at 3.75 µM ([2]; Well no.=6631): 106%; remaining activity at 3.75 µM ([2]; Well no.=8145): 97.6%

**Q.** Which results are given for `CN1C[C@H](C(=O)N[C@]2(C)O[C@@]3(O)[C@@H]4CCCN4C(=O)[C@H](Cc4ccccc4)N3C2=O)C[C@@H]2c3cccc4[nH]cc(c34)C[C@H]21` [Dihydroergotamine (mesylate)]?
**A.** remaining activity at 1.25 µM ([1]; Well no.=6947): 92.6%; remaining activity at 3.75 µM ([2]; Well no.=6947): 92.7%

**Q.** `Cc1onc(-c2ccccc2)c1C(=O)N[C@@H]1C(=O)N2[C@@H]1SC(C)(C)[C@@H]2C(=O)O` [Oxacillin (sodium monohydrate)] was tested. Which remaining activity at 1.25 µM ([1]; Well no.=7552) did it give?
**A.** 99.7%

**Q.** What about the remaining activity at 3.75 µM ([2]; Well no.=7552) of the same molecule?
**A.** 97.5%

**Q.** `Clc1cc(I)cc(Cl)c1NC1=NCCN1` [p-Iodoclonidine hydrochloride] was tested. Which remaining activity at 1.25 µM ([1]; Well no.=873) did it give?
**A.** 110%

**Q.** And the remaining activity at 3.75 µM ([2]; Well no.=873)?
**A.** 113%

**Q.** Which remaining activity at 1.25 µM ([1]; Well no.=5502) does the source give for `CCc1c(CC(N)=O)c2cc(OCCCP(=O)(O)O)ccc2n1Cc1ccccc1` [LY311727] here?
**A.** 102%

**Q.** What about the remaining activity at 3.75 µM ([2]; Well no.=5502) of the same molecule?
**A.** 109%

**Q.** What does the source list for `COc1ccc(CNC(=O)c2cc(-c3cncc(C)c3)ncc2-c2nccs2)nc1OC` [MK-3697]?
**A.** remaining activity at 1.25 µM ([1]; Well no.=7867): 107%; remaining activity at 3.75 µM ([2]; Well no.=7867): 95.1%

**Q.** What does the source list for `C=C1[C@H](CO)[C@@H](O)C[C@@H]1n1cnc2c(=O)[nH]c(N)nc21` [Entecavir hydrate]?
**A.** remaining activity at 1.25 µM ([1]; Well no.=5147): 93.9%; remaining activity at 3.75 µM ([2]; Well no.=5147): 95.5%

**Q.** How did the remaining activity at 1.25 µM ([1]; Well no.=4445) turn out when `CCCCCCCCCCCCCCCCOC[C@@H](COP(=O)([O-])OCC[N+](C)(C)C)OC(C)=O` [PAF C16] was run?
**A.** 103%

**Q.** What about the remaining activity at 3.75 µM ([2]; Well no.=4445) of the same molecule?
**A.** 98.2%
